Source: ChEMBL document CHEMBL4350982, “Multi-target design strategies for the improved treatment of Alzheimer's disease” (Eur J Med Chem, 2019)
Each block holds one molecule with its values, some of them ahead of it.

Key:
[1] = target: T1, Amine oxidase [flavin-containing] A (Homo sapiens, UniProt P21397); assay: Irreversible inhibition of MAOA (unknown origin)
T1 sequence (P21397 whole entry): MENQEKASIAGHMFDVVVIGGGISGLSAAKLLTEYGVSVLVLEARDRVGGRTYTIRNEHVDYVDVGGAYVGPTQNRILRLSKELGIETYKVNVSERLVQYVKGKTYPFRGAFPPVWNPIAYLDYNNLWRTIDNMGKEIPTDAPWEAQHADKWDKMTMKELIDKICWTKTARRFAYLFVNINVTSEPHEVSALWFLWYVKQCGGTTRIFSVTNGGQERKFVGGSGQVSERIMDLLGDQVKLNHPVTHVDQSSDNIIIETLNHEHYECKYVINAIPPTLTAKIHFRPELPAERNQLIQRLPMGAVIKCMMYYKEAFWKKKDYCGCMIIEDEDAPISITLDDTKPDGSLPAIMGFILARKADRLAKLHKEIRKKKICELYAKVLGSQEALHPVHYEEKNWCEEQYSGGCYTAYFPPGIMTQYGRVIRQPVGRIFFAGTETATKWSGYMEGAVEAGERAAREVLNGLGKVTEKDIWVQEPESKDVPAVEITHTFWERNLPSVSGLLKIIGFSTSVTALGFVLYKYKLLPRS

[2] = target: T2, Amine oxidase [flavin-containing] B (Homo sapiens, UniProt P27338); assay: Irreversible inhibition of MAOB (unknown origin)
T2 sequence (P27338 whole entry): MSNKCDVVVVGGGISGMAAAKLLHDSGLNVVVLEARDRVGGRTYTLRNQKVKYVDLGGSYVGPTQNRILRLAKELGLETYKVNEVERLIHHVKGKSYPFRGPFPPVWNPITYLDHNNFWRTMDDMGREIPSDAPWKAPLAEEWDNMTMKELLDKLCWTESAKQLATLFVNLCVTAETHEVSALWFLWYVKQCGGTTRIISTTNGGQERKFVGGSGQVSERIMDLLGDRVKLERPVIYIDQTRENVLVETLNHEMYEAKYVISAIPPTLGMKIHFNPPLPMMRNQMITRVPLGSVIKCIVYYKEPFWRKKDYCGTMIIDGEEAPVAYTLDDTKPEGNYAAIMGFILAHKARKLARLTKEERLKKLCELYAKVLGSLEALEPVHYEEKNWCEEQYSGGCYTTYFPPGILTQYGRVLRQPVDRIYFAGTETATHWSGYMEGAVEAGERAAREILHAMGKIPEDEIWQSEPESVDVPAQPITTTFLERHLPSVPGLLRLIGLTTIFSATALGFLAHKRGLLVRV

[3] = target: T3, Acetylcholinesterase (Homo sapiens, UniProt P22303); assay: Inhibition of recombinant human AChE
T3 sequence (P22303 whole entry): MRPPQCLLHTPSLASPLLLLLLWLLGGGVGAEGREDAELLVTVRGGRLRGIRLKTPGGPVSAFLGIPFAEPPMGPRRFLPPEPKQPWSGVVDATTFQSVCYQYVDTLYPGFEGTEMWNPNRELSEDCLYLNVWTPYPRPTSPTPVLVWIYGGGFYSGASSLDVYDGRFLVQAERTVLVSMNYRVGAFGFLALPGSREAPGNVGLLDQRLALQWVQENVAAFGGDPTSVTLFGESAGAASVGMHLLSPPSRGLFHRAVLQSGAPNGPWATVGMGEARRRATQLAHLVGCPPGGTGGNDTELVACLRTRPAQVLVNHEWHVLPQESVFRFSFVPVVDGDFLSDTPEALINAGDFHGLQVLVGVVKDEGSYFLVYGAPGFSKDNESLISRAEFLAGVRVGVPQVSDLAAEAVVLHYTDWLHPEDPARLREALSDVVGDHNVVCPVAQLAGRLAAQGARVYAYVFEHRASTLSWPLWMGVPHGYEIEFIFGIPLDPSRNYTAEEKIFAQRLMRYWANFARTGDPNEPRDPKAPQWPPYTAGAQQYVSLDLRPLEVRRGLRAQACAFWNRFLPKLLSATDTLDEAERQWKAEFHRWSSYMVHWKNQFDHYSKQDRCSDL

[4] = target: T4, Beta-secretase 1 (Homo sapiens, UniProt P56817); assay: Inhibition of recombinant human BACE-1
T4 sequence (P56817 whole entry): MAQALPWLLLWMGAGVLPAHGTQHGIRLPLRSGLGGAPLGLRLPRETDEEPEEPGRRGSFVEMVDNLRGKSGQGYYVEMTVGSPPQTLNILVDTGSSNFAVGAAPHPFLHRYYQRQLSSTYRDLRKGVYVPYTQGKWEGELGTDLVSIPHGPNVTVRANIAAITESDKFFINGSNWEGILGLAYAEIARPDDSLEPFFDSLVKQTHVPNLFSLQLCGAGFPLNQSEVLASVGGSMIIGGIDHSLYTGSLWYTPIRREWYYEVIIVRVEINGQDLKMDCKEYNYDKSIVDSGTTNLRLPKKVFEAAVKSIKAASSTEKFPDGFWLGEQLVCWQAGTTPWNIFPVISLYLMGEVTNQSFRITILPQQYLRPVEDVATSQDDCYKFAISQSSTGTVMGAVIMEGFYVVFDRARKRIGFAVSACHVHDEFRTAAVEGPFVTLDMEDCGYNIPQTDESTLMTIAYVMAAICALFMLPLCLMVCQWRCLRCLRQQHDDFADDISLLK

[5] = system: CHO-K1; assay: Cytotoxicity against CHOK1 cells assessed as reduction in cell viability by MTT assay; format: cell-based; details: Cricetulus griseus
[6] = system: HepG2; assay: Cytotoxicity against human HepG2 cells assessed as reduction in cell viability by MTT assay; format: cell-based
[7] = target: T5, Acetylcholinesterase (Electrophorus electricus, UniProt O42275); assay: Inhibition of electric eel AChE using acetylthiocholine chloride as substrate preincubated for 15 mins followed by substrate addition
T5 sequence (O42275 whole entry): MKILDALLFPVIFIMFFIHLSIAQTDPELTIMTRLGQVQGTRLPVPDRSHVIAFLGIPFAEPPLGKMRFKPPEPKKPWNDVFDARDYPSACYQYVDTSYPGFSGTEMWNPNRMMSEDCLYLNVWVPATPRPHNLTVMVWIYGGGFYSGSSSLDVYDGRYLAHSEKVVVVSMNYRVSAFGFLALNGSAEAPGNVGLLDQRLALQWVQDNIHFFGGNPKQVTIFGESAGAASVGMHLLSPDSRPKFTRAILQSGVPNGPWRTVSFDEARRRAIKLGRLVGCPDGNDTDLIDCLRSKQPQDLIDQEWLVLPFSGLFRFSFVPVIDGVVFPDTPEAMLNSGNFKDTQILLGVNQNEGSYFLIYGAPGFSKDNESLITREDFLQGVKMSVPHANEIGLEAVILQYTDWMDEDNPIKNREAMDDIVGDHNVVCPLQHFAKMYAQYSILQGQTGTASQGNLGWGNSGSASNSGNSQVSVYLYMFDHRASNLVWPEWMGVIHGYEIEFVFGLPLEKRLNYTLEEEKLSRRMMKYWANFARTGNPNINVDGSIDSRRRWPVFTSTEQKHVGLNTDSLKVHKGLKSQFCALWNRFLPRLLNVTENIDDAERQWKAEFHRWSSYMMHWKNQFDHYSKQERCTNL

[8] = target: T3, Acetylcholinesterase; assay: Inhibition of recombinant human AChE using acetylthiocholine as substrate by UV-visible absorption method
[9] = target: T4, Beta-secretase 1; assay: Inhibition of BACE-1 (unknown origin) after 60 mins by FRET assay
[10] = target: T3, Acetylcholinesterase; assay: Inhibition of AChE (unknown origin)
[11] = target: T4, Beta-secretase 1; assay: Inhibition of BACE-1 (unknown origin)
[12] = target: Cholinesterase (Equus caballus, UniProt P81908); assay: Inhibition of equine serum BChE using butyrylthiocholine iodide as substrate preincubated for 10 mins followed by substrate addition by Ellman's method
Chain of Cholinesterase (P81908 whole entry): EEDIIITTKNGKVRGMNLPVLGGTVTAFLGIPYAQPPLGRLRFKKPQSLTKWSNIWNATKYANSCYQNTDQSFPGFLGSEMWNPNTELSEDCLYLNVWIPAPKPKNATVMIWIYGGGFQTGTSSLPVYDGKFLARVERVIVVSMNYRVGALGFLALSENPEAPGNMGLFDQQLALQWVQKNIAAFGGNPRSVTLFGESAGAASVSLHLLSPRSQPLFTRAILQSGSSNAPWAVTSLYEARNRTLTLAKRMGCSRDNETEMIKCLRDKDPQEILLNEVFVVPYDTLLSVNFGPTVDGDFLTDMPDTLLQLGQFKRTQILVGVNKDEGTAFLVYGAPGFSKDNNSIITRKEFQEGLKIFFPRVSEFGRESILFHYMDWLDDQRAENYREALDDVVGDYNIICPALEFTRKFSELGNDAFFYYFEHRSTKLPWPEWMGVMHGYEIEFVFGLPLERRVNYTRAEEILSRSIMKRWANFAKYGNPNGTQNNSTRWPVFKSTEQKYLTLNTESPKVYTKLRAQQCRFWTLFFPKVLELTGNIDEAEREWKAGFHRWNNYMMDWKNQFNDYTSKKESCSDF

[13] = target: Glutamate [NMDA] receptor; assay: Displacement of [3H]-MK-801 from NMDA receptor (unknown origin) by scintillation counting method; format: protein-complex assay, Homo sapiens
[14] = target: Glutamate [NMDA] receptor; assay: Displacement of [3H]-ifenprodil from NMDA receptor (unknown origin) by scintillation counting method; format: protein-complex assay, Homo sapiens
[15] = target: T1, Amine oxidase [flavin-containing] A; assay: Mixed type inhibition of MAOA (unknown origin)
[16] = target: T2, Amine oxidase [flavin-containing] B; assay: Mixed type inhibition of MAOB (unknown origin)
[17] = target: T3, Acetylcholinesterase; assay: Irreversible inhibition of AChE (unknown origin)
[18] = target: T4, Beta-secretase 1; assay: Irreversible inhibition of BACE-1 (unknown origin)
[19] = target: Amyloid-beta precursor protein (Homo sapiens) (UniProt P05067); assay: Inhibition of beta amyloid (unknown origin) self-induced aggregation at 10 uM relative to control
Chain of Amyloid-beta precursor protein (Homo sapiens) (P05067 whole entry): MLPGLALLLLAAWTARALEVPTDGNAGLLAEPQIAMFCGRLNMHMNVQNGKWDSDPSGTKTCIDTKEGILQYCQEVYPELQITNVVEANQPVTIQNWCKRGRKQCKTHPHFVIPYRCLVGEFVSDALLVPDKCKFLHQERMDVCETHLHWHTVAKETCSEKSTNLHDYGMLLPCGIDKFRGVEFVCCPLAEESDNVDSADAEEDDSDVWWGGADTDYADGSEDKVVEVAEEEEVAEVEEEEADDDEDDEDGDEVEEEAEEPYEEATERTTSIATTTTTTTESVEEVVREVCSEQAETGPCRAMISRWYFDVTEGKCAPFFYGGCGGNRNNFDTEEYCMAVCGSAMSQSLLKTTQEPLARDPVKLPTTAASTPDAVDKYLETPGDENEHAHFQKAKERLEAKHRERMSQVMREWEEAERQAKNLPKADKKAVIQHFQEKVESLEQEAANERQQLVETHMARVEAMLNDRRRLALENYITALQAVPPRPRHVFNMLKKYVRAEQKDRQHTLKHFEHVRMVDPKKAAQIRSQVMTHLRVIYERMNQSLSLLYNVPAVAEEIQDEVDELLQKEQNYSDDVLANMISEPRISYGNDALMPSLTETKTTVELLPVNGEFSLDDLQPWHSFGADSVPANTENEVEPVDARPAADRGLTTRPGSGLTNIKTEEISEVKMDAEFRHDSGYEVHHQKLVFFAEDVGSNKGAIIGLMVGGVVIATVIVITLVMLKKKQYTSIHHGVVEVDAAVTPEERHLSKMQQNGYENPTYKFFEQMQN

[20] = target: T6, Acetylcholinesterase (Rattus norvegicus, UniProt P37136); assay: Inhibition of AChE from rat cortex by Ellman's method
T6 sequence (P37136 whole entry): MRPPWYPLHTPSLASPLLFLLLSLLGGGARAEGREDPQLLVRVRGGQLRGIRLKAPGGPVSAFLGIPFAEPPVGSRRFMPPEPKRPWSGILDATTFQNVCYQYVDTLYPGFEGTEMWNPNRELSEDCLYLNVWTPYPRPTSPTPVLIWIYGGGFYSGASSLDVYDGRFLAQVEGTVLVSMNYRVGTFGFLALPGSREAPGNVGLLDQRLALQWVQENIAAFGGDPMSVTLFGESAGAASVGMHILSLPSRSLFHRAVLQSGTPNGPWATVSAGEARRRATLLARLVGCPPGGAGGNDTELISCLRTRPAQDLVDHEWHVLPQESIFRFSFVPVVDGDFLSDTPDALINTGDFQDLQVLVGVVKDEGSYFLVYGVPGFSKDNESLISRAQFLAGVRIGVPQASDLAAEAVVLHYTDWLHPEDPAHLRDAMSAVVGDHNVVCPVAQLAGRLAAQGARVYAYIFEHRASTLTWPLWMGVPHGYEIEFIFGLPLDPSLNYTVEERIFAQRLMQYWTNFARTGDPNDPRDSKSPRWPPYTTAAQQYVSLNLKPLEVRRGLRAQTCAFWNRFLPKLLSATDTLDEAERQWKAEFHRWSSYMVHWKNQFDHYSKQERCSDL

[21] = target: Glutamate [NMDA] receptor; assay: Inhibition of NMDA receptor (unknown origin); format: protein-complex assay, Homo sapiens
[22] = target: Amyloid-beta precursor protein (Homo sapiens) (UniProt P05067); assay: Inhibition of beta amyloid (unknown origin) self-induced aggregation relative to control; details: concentration not given here
[23] = Oral bioavailability in Alzheimer's disease patient at 2 mg/ml; format: ADME, organism-based; details: human, in vivo
[24] = Half life in Alzheimer's disease patient at 2 mg/ml, po; format: ADME; details: human, in vivo
[25] = Drug excretion in Alzheimer's disease patient urine at 2 mg/ml, po; format: ADME, tissue-based; details: human, read-out: Drug excretion
[26] = target: T5, Acetylcholinesterase; assay: Inhibition of electric eel AChE using acetylthiocholine as substrate measured for 3.2 mins by Ellman's method
[27] = target: Butyrylcholinesterase (Rattus norvegicus, UniProt Q9JKC1); assay: Inhibition of BuChE from rat serum by Ellman's method
[28] = target: cGMP-specific 3',5'-cyclic phosphodiesterase (Homo sapiens, UniProt O76074); assay: Inhibition of PDE5A1 (unknown origin) by immobilized metal ion affinity-based fluorescence polarization
[29] = target: cGMP-dependent 3',5'-cyclic phosphodiesterase (Homo sapiens, UniProt O00408); assay: Inhibition of PDE2A1 (unknown origin) by immobilized metal ion affinity-based fluorescence polarization
Chain of cGMP-dependent 3',5'-cyclic phosphodiesterase (O00408 whole entry): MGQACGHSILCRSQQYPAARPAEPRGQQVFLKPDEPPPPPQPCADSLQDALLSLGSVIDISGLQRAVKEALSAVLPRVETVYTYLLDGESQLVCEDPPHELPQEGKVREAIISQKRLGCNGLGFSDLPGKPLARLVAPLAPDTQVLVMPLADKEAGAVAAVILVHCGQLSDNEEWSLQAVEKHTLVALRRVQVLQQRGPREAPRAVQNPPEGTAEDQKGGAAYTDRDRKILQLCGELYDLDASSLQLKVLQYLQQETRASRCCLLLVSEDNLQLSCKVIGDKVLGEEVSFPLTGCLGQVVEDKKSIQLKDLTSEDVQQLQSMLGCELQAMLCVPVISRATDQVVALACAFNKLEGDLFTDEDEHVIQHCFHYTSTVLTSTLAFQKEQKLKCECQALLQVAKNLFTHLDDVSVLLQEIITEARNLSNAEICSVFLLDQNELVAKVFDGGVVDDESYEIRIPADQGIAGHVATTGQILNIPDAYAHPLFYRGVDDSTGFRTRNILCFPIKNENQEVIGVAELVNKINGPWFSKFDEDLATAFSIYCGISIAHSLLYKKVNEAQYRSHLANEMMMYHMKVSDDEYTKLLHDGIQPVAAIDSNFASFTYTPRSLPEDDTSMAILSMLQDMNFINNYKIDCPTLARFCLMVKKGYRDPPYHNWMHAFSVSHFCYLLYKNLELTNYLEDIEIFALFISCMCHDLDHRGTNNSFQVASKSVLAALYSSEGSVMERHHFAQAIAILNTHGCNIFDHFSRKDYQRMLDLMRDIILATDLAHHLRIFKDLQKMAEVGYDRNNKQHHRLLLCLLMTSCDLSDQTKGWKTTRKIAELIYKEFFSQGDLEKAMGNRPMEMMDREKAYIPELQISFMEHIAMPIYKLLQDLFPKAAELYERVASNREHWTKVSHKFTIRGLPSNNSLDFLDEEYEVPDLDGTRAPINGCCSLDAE

[30] = target: cGMP-inhibited 3',5'-cyclic phosphodiesterase 3A (Homo sapiens, UniProt Q14432); assay: Inhibition of PDE3A (unknown origin) by immobilized metal ion affinity-based fluorescence polarization
[31] = target: Cone cGMP-specific 3',5'-cyclic phosphodiesterase subunit alpha' (Homo sapiens, UniProt P51160); assay: Inhibition of PDE6C (unknown origin) by immobilized metal ion affinity-based fluorescence polarization
Chain of Cone cGMP-specific 3',5'-cyclic phosphodiesterase subunit alpha' (P51160 whole entry): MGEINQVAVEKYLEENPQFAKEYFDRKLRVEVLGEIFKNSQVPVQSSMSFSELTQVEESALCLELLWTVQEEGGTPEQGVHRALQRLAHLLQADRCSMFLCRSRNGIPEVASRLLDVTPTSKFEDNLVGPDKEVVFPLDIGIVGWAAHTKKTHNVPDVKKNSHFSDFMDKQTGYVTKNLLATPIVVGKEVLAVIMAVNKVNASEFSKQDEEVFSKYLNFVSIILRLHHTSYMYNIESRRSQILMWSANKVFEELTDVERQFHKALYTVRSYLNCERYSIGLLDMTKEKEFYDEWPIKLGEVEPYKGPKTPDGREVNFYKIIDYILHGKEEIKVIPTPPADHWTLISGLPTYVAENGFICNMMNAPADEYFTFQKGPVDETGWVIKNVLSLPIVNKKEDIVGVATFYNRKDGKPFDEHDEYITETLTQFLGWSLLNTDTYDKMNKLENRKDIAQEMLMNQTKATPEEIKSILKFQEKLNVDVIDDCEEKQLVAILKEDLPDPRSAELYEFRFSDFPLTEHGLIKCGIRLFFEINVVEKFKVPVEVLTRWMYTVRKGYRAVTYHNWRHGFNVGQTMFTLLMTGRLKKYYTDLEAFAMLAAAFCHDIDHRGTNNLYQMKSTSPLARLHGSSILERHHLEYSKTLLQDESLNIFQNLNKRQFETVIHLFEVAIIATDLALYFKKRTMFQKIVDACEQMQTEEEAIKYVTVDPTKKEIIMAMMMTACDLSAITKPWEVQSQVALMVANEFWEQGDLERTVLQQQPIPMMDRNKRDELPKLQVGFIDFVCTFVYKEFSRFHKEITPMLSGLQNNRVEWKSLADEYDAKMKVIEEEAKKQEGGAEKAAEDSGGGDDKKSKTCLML

[32] = target: High affinity 3',5'-cyclic-AMP phosphodiesterase 7A (Homo sapiens, UniProt Q13946); assay: Inhibition of PDE7A (unknown origin) by immobilized metal ion affinity-based fluorescence polarization
[33] = target: High affinity cGMP-specific 3',5'-cyclic phosphodiesterase 9A (Homo sapiens, UniProt O76083); assay: Inhibition of PDE9A2 (unknown origin) by immobilized metal ion affinity-based fluorescence polarization
[34] = Inhibition of PDE4D3 (unknown origin) by immobilized metal ion affinity-based fluorescence polarization; parameters: species or system Homo sapiens

SMILES: COc1ccc2[nH]c3nc4c(c(N)c3c2c1)CCCC4
- IC50 [1]: 0.49 µM
- IC50 [2]: 53.9 µM
- IC50 [3]: 1.5 µM
- IC50 [4]: 2.4 µM
- IC50 [5]: 5.5 µM
- IC50 [6]: 1.22 µM

SMILES: COc1ccc(/C=C2\COc3cc(OCCCN4CCCCC4)ccc3C2=O)cc1
- IC50 [7]: 3.94 µM

SMILES: COc1ccc(CNC(=O)C2CCN(C(=O)c3ccccc3)CC2)cc1OC
- IC50 [8]: 0.00411 µM
- IC50 [9]: 0.0183 µM

SMILES: OC(CNCc1cccc(OCc2ccccc2)c1)Cn1cc(Br)c2cc(Br)ccc21 (stereo not given)
- IC50 [10]: 9.1 µM
- IC50 [11]: 0.97 µM

SMILES: CCN1CCc2c(c3ccccc3n2CCC(=O)N2c3ccccc3Sc3ccccc32)C1
- IC50 [12]: 0.52 µM
- IC50 [13]: 14.6 µM
- IC50 [14]: 13.4 µM

SMILES: C#CCN(C)Cc1ccc(O)c2ncccc12
- IC50 [15]: 57 µM
- IC50 [16]: 1.5 µM
- IC50 [17]: 1.8 µM
- IC50 [18]: 1.6 µM
- IC50 [1]: 6.2 µM
- IC50 [2]: 10.2 µM

- IC50 [11]: 2.5 µM
SMILES: COc1cc(/C=C/C(O)=C/C(=O)/C=C/c2ccc(OCc3ccccc3)cc2)ccc1O

SMILES: C#CCN(C)Cc1cc2cc(OCCCC3CCN(Cc4ccccc4)CC3)ccc2n1C
- IC50 [10]: 0.35 µM
- inhibition [19]: 47.8%

SMILES: CN1CC(=O)N2[C@H](c3ccc4c(c3)OCO4)c3[nH]c4ccccc4c3C[C@@H]2C1=O
- IC50 [20]: 26.2 µM

SMILES: Cc1ccc2[nH]c3c(c2c1)CN(CCCCCN1CCc2[nH]c4ccc(C)cc4c2C1)CC3
- IC50 [21]: 11 µM
- IC50 [10]: 0.195 µM
- inhibition [22]: 67%

- bioavailability [23]: 100%
- half-life [24]: 60 to 100 h
- dose excreted [25]: 48%
SMILES: CC12CC3CC(C)(C1)CC(N)(C3)C2 [MEMANTINE]

SMILES: Cc1cc(=O)oc2cc(OCCN3CCN(CC(=O)Nc4c5c(nc6ccccc46)CCCC5)CC3)ccc12
- IC50 [26]: 92 µM

SMILES: O=C1[C@H]2Cc3c([nH]c4ccccc34)[C@@H](c3ccc4c(c3)OCO4)N2C(=O)CN1CCC1CCN(Cc2ccccc2)CC1
- IC50 [20]: 0.032 µM
- IC50 [27]: 3.88 µM
- IC50 [28]: 1.53 µM
- IC50 [29]: > 100 µM
- IC50 [30]: > 100 µM
- IC50 [31]: > 100 µM
- IC50 [32]: > 100 µM
- IC50 [33]: > 100 µM
- IC50 [34]: > 100 µM
